This assay in a line: The compound was tested for binding activity towards Opioid receptor delta 1 in guinea pig brain membranes.

Molecules are shown by their SMILES. Starred links: 1 amine or outer side, 2 acyl side, 3 side chain; linkers in the order of their positions; H or OH if unused. Residues, ends and D or L forms follow the SMILES beside them. Ethylenediamine = C(CN[*:2])N[*:1]; GABA = NCCCC(=O)O

Take `NCCCC(=O)NCCNC(=O)[C@H](Cc1ccccc1)NC(=O)CNC(=O)CNC(=O)[C@@H](N)Cc1ccc(O)cc1` (H-YGGF-{Ethylenediamine-GABA}): affinity was put at a Ki of 10.1 µM. In the case of `NCCCC(=O)NCCCN(CCCNC(=O)[C@H](Cc1ccccc1)NC(=O)CNC(=O)CNC(=O)[C@@H](N)Cc1ccc(O)cc1)C(=O)CCCN` (HELM PEPTIDE1{Y.G.G.F.[NCCCC(=O)NCCCN(CCCN[*:1])C(=O)CCCN]}$$$$V2.0), the Ki (usually a measure of affinity in units of concentration, obtained from inhibition or displacement) worked out at 8.43 µM. Then `NCCCC(=O)NCCN(CCNC(=O)[C@H](Cc1ccccc1)NC(=O)CNC(=O)CNC(=O)[C@@H](N)Cc1ccc(O)cc1)C(=O)CCCN` (HELM PEPTIDE1{Y.G.G.F.[NCCCC(=O)NCCN(CCN[*:1])C(=O)CCCN]}$$$$V2.0), with 22.7 µM. `NCCCC(=O)NCCN(CCN(CCNC(=O)[C@H](Cc1ccccc1)NC(=O)CNC(=O)CNC(=O)[C@@H](N)Cc1ccc(O)cc1)C(=O)CCCN)C(=O)CCCN` [4-Amino-N-[2-(4-amino-butyrylamino)-ethyl]-N-[2-((4-amino-butyryl)-{2-[2-(2-{2-[2-amino-3-(4-hydroxy-phenyl)-propionylamino]-acetylamino}-acetylamino)-3-phenyl-propionylamino]-ethyl}-amino)-ethyl]-butyramide] (HELM PEPTIDE1{Y.G.G.F.[NCCCC(=O)NCCN(CCN(CCN[*:1])C(=O)CCCN)C(=O)CCCN]}$$$$V2.0) had an inhibition constant (Ki) of over 10 µM. In turn, `CC[C@H](C)[C@H](NC(=O)[C@H](CCCN=C(N)N)NC(=O)[C@H](CCCN=C(N)N)NC(=O)[C@H](CC(C)C)NC(=O)[C@H](Cc1ccccc1)NC(=O)CNC(=O)CNC(=O)[C@@H](N)Cc1ccc(O)cc1)C(=O)N[C@@H](CCCN=C(N)N)C(=O)N1CCC[C@H]1C(=O)N[C@@H](CCCCN)C(=O)N[C@@H](CC(C)C)C(=O)N[C@@H](CCCCN)C(=O)O` [Dynorphin A (1-13)] yielded an inhibition constant Ki of 0.016 µM.

Values taken from BindingDB's records for doi:10.1021/jm00113a020 (Case Western Reserve University, 1991).
